Measurements reported in patent publication US10214508B2, “Nitrogen-containing heterocyclic compound” (Takeda Pharmaceutical Company Limited, priority 2014, dated 2019).

Tests used:
[1] = biological target: T1, human M1 receptor (hCHRM1) (Homo sapiens, UniProt P11229); test: Measurement of M1 receptor positive allosteric modulator (M1PAM) activity, calcium fluorescence (FLIPRtetra); format: cell-based; details: 10 μM test compound with acetylcholine at EC20 (final 0.6-0.8 nM); 100% = acetylcholine 1 μM, 0% = DMSO; CHO-K1 cells expressing hCHRM1
T1 construct: expressed in transfected cells
T1 sequence (P11229 1-460): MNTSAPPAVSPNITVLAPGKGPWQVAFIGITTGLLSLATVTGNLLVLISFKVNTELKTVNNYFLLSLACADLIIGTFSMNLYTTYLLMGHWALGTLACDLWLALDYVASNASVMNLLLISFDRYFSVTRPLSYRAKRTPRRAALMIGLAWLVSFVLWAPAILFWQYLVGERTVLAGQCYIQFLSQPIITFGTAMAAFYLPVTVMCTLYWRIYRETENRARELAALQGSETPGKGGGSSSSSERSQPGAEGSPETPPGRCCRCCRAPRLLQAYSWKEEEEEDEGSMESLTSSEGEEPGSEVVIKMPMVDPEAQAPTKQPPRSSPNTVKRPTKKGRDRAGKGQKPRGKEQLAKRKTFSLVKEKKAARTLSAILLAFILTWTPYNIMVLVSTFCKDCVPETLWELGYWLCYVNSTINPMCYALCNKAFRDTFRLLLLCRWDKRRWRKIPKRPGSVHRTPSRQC
Summary of the method: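 CHO-K1 cells stably expressing hM1 were Fluo-4-loaded; compound added with acetylcholine at EC20 (0.6-0.8 nM final), calcium fluorescence read 1 min on FLIPRtetra. Activity scaled between DMSO (0%) and 1 μM acetylcholine (100%); inflection point of concentration–response reported as IP.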

[2] = test system: Scopolamine-induced memory deficits models; test: Novel object recognition test; format: in vivo, male Long-Evans rats; details: 2 hours before acquisition trial, scopolamine 0.1 mg/kg s.c., mean±standard error
Description: Novel Object Recognition Test Novel object recognition test is comprised of two trials called the acquisition and the retention trials. Scopolamine-induced memory deficits models were used for the test, and animals used were male Long-Evans rats (7-week-old). On the day before the test, for acclimation, the rats were allowed to freely move about the test box (40×40×50 cm) for 10 minutes. On the test day, the rats were acclimated to the test room for about for 1 hr prior to the test. The test compounds were orally administered to the rats in a single dose 2 hours before the acquisition trial. For induction of learning and memory deficits, scopolamine (0.1 mg/kg) was subcutaneously administered into the rats for 30 min before the acquisition trial. For the acquisition trial, two identical objects (A1, A2) were placed in the test box. The rats were put in the test box for 3 min, and the duration exploring each object was measured. The retention trial was performed for 4 hr after the acquisition trial. For the retention trial, one familiar object (A3) used for the acquisition trial and one novel object (B) having a different shape from A3 were placed in the test box. After setting the objects, the rats were introduced into the test box and retention trial was performed for 3 min. The duration for exploring each object in the acquisition trial and the retention trial was measured, and the exploration rate of novel object was calculated. The exploration rate of novel object was expressed as (the duration exploring the novel object)/[(the duration exploring the novel object)+(the duration exploring the familiar object)]×100(%) at mean±standard error.

IP1 production = test: Measurement of myo-inositol 1 phosphate (IP1) in hippocampi after oral administration; format: in vivo, male Long-Evans rats; details: rat hippocampus, relative to Vehicle administration group as 100%
Description: Measurement of Myo-Inositol 1 Phosphate (IP1)
Animals used were male Long-Evans rats. They were used after acclimation for at least 1 week. Test compounds were suspended in 0.5% (w/v) aqueous methylcellulose solution, and the suspension was orally administered to the rats. After a given time, lithium chloride was dissolved in saline and subcutaneously administered into the rats. After a given time, their bilateral hippocampi were isolated from the rats, and the wet weight thereof was measured. The isolated hippocampi were homogenized with HEPES buffer, followed by centrifugation. The IP1 and protein concentrations in the supernatant were measured by IP-One HTRF(R) assay kit (Cisbio Bioassays) and BCA protein assay kit (Thermo Scientific), respectively. The level of the IP1 production was expressed as the ratio of the concentration of IP1 to that of protein. The increase rate of the IP1 production was shown as a relative value when Vehicle administration group as 100%.

SMILES: Cc1cnc(C(=O)N[C@H]2CCC[C@@H]2O)cc1Cc1ccc(-c2ccn(C)n2)cc1 [Example 1, N-((1S,2S)-2-hydroxycyclopentyl)-5-methyl-4-(4-(1-methyl-1H-pyrazol-3-yl)benzyl)pyridine-2-carboxamide]
- activity (%) at 10 μM [1]: 86%
- exploration rate of novel object (%) ([2]; 10 mg/kg oral, control group 69.26±2.87%, solvent-scopolamine group 55.27±3.48%): 64.59±2.59%
- increase rate (%) of the IP1 production (IP1 production; 10 mg/kg): 38%

SMILES: Cc1nc(C(=O)N[C@H]2CCC[C@@H]2O)cc(Cc2ccc(-c3ccn(C)n3)cc2)c1C [Example 72, N-((1S,2S)-2-hydroxycyclopentyl)-5,6-dimethyl-4-(4-(1-methyl-1H-pyrazol-3-yl)benzyl)pyridine-2-carboxamide]
- activity (%) at 10 μM [1]: 105%
- exploration rate of novel object (%) ([2]; 3 mg/kg oral, control group 66.74±3.01%, solvent-scopolamine group 47.48±3.66%): 53.16±2.80%
- increase rate (%) of the IP1 production (IP1 production; 10 mg/kg): 70%

SMILES: Cc1nc(C(=O)N[C@H]2CCCC[C@@H]2O)cc(Cc2ccc(-c3ccn(C)n3)nc2)c1C [Example 74, N-((1S,2S)-2-hydroxycyclohexyl)-5,6-dimethyl-4-((6-(1-methyl-1H-pyrazol-3-yl)pyridin-3-yl)methyl)pyridine-2-carboxamide]
- activity (%) at 10 μM [1]: 103%
- exploration rate of novel object (%) ([2]; 10 mg/kg oral, control group 66.74±3.01%, solvent-scopolamine group 47.48±3.66%): 55.14±1.48%
- increase rate (%) of the IP1 production (IP1 production; 3 mg/kg): 22%

SMILES: Cc1ccc(Cc2cc(C(=O)N[C@H]3COCC[C@@H]3O)nc(C)c2Cl)cn1 [Example 111, 1,5-anhydro-2-(((5-chloro-6-methyl-4-((6-methylpyridin-3-yl)methyl)pyridin-2-yl)carbonyl)amino)-2,4-dideoxy-L-threo-pentitol]
- activity (%) at 10 μM [1]: 90%

SMILES: Cc1nc(C(=O)N[C@H]2CCCC[C@@H]2O)cc(Cc2ccc(-n3cccn3)cc2)c1C#N [Example 112, 5-cyano-N-((1S,2S)-2-hydroxycyclohexyl)-6-methyl-4-(4-(1H-pyrazol-1-yl)benzyl)pyridine-2-carboxamide]
- activity (%) at 10 μM [1]: 91%

SMILES: Cc1nc(C(=O)N[C@H]2COCC[C@@H]2O)cc(Cc2ccc(-n3cccn3)cc2)c1C#N [Example 113, 1,5-anhydro-2-(((5-cyano-6-methyl-4-(4-(1H-pyrazol-1-yl)benzyl)pyridin-2-yl)carbonyl)amino)-2,4-dideoxy-L-threo-pentitol]
- activity (%) at 10 μM [1]: 94%

SMILES: Cc1nc(C(=O)N[C@H]2CCCC[C@@H]2O)cc(Cc2ccc(-c3ccn(C)n3)cc2)c1C#N [Example 114, 5-cyano-N-((1S,2S)-2-hydroxycyclohexyl)-6-methyl-4-(4-(1-methyl-1H-pyrazol-3-yl)benzyl)pyridine-2-carboxamide]
- activity (%) at 10 μM [1]: 94%

SMILES: Cc1nc(C(=O)N[C@H]2COCC[C@@H]2O)cc(Cc2ccc(-c3ccn(C)n3)cc2)c1C#N [Example 115, 1,5-anhydro-2-(((5-cyano-6-methyl-4-(4-(1-methyl-1H-pyrazol-3-yl)benzyl)pyridin-2-yl)carbonyl)amino)-2,4-dideoxy-L-threo-pentitol]
- activity (%) at 10 μM [1]: 111%

SMILES: Cc1nc(C(=O)N[C@H]2CCC[C@@H]2O)cc(Cc2ccc(Cl)nc2)c1C [Example 116, 4-((6-chloropyridin-3-yl)methyl)-N-((1S,2S)-2-hydroxycyclopentyl)-5,6-dimethylpyridine-2-carboxamide]
- activity (%) at 10 μM [1]: 104%

SMILES: Cc1nc(C(=O)N[C@H]2CCC[C@@H]2O)cc(Cc2ccc(-c3ccn(C)n3)nc2)c1C [Example 117, N-((1S,2S)-2-hydroxycyclopentyl)-5,6-dimethyl-4-((6-(1-methyl-1H-pyrazol-3-yl)pyridin-3-yl)methyl)pyridine-2-carboxamide]
- activity (%) at 10 μM [1]: 106%
